Source: patent publication US9611273B2, “Trioxane thioacetal monomers and dimers and methods of use thereof” (THE JOHNS HOPKINS UNIVERSITY, priority 2012, dated 2017)

What was measured:
[1] = system: P. berghei malaria parasites; experiment: In vivo antimalarial efficacy, single oral dose of trioxane plus mefloquine hydrochloride in P. berghei-infected mice; conditions: for mouse survival post infection: single oral dose 6 mg/kg trioxane plus 18 mg/kg mefloquine, or 18 mg/kg mefloquine alone; for % suppression of parasitemia (on day 3 post infection) / average survival (days) after infection: single oral dose of 6 mg/kg trioxane and 18 mg/kg mefloquine hydrochloride (control: mefloquine-HCl only), P. berghei-infected mice; for average survival (days) after infection: groups of 4
Description: Using a standard protocol, see Slack, et al., 2012, 20-gram mice were infected by intraperitonial injection with P. berghei malaria parasites. One day after infection, each mouse in groups of 4 mice received a single oral dose of 6 mg/kg body weight of a trioxane thioacetal combined with 18 mg/kg of the long-lived antimalarial mefloquine hydrochloride. In all cases, parasitemia was decreased by at least 99% on day 3 post infection. Malaria-infected mice receiving no antimalarial drug died on day 6 or 7 post infection. Critically, control groups of mice receiving 6 mg/kg of the popular trioxane drug artemether (2b) plus 18 mg/kg of mefloquine, or just 18 mg/kg of mefloquine alone, survived for about 3 weeks post infection. In contrast, several of the presently disclosed trioxane thioacetals prolonged mouse survival for longer than 3 weeks, and in some instances produced partial cures; for example, 2 of 4 mice in one group (diisopropyl carbamate 3u) appeared healthy and had no detectable parasitemia on day 30 post infection.
The antimalarial efficacy of representative presently disclosed C-10 thioacetals, as well as controls, is summarized in Table 1, which includes the parasitemia levels for mice on day 3 post-infection.

P388 leukemia = conditions: NCI Report on NSC 369397, tested on 25 Oct. 1983; cited from earlier work
[2] = single oral dose 6 mg/kg plus 18 mg/kg mefloquine hydrochloride

Row | SMILES | antimalarial efficacy in words [1, 2] | % suppression of parasitemia (on day 3 post infection) [1] [%] | average survival (days) after infection [1] [days] | also measured
1 | C[C@H]1[C@H](SCCCOCc2ccc(F)cc2)O[C@@H]2O[C@]3(C)CC[C@H]4[C@H](C)CC[C@@H]1[C@@]24OO3 [3h, Art-10α-S(CH2)3OCH2PhF-4] | most highly efficacious | – | – | –
2 | C[C@H]1[C@H](SCCCOCn2nnc3ccccc32)O[C@@H]2O[C@]3(C)CC[C@H]4[C@H](C)CC[C@@H]1[C@@]24OO3 [3k, Art-10α-S(CH2)3OCH2—N-benzotriazole] | most highly efficacious | – | – | –
3 | CC(C)N(C(=O)OCCCS[C@@H]1O[C@@H]2O[C@]3(C)CC[C@H]4[C@H](C)CC[C@@H]([C@H]1C)[C@@]24OO3)C(C)C [3u, AMJ-Art-10α-S(CH2)3OC(O)N(iPr)2] | most highly efficacious | – | – | mice appearing healthy with no detectable parasitemia on day 30 post infection (partial cure) ([1]; single oral dose 6 mg/kg plus 18 mg/kg mefloquine hydrochloride, group of 4 mice): 2 of 4
4 | CO[C@H]1O[C@@H]2O[C@@]3(C)CC[C@H]4[C@H](C)CC[C@@H]([C@H]1C)[C@@]24OO3 [artemether, reference compound] | – | – | – | mouse survival post infection [1]: about 3 weeks
5 | C[C@@H]1CC[C@H]2[C@@H](C)C(=O)O[C@@H]3O[C@@]4(C)CC[C@@H]1[C@]32OO4 [artemisinin] | – | – | – | activity against P388 leukemia (P388 leukemia): inactive
6 | CSC(=O)OCCCS[C@@H]1O[C@@H]2O[C@@]3(C)CC[C@H]4[C@H](C)CC[C@@H]([C@H]1C)[C@@]24OO3 [compound 109, Art-10α-S(CH2)3OC(O)SCH3] | – | >99.9 | 24.5 | –
7 | CCCSC(=O)OCCCS[C@@H]1O[C@@H]2O[C@@]3(C)CC[C@H]4[C@H](C)CC[C@@H]([C@H]1C)[C@@]24OO3 [compound 110, Art-10α-S(CH2)3OC(O)SnPr] | – | >99.9 | 19.3 | –
8 | C[C@H]1[C@H](SCCCOC(=O)SC(C)(C)C)O[C@@H]2O[C@@]3(C)CC[C@H]4[C@H](C)CC[C@@H]1[C@@]24OO3 [compound 111, Art-10α-S(CH2)3OC(O)StBu] | – | 99.9 | 29.8 | –
9 | CSC(=S)OCCCS[C@@H]1O[C@@H]2O[C@]3(C)CC[C@H]4[C@H](C)CC[C@@H]([C@H]1C)[C@@]24OO3 [compound 114, Art-10α-S(CH2)3OC(S)SCH3] | – | 99.9 | 22.0 | –
10 | Cl.OC(c1cc(C(F)(F)F)nc2c(C(F)(F)F)cccc12)C1CCCCN1 (centres unmarked) [mefloquine-HCl only, mefloquine hydrochloride, reference compound] | – | >99.9 | 14.0 | mouse survival post infection [1]: about 3 weeks
